Test results as given in patent US11267844B2, “Spirothietane nucleosides” (Janssen Pharmaceutica NV, priority 2017, dated 2022).
Where two headings read alike, the source gives them in different places.

Key:
[1] = system: HCV replicon (NS3-NS5B regions of HCV type 1b) in Huh-7 luc/neo cells; assay: HCV replicon assay (Huh-Luc cells, luciferase read-out); type: cell-based; details: Hepatitis C virus, Huh-7, 72 h
From the text: The compounds of Formula (I) were examined for activity against HCV in a cellular assay. […] The cellular assay was based on a bicistronic expression construct, as described by Lohmann et al. (1999) Science vol. 285 pp. 110-113 with modifications described by Krieger et al. (2001) Journal of Virology 75: 4614-4624, in a multi-target screening strategy.
In essence, the method was as follows. The assay utilized the stably transfected cell line Huh-7 luc/neo (hereafter referred to as Huh-Luc). This cell line harbors an RNA encoding a bicistronic expression construct comprising the wild type NS3-NS5B regions of HCV type 1b translated from an internal ribosome entry site (IRES) from encephalomyocarditis virus (EMCV), preceded by a reporter portion (FfL-luciferase), and a selectable marker portion (neo^R, neomycine phosphotransferase). The construct is bordered by 5′ and 3′ NTRs (non-translated regions) from HCV genotype 1b. Continued culture of the replicon cells in the presence of G418 (neo^R) is dependent on the replication of the HCV-RNA. The stably transfected replicon cells that express HCV-RNA, which replicates autonomously and to high levels, encoding inter alia luciferase, were used for screening the antiviral compounds.
The replicon cells were plated in 384-well plates in the presence of the test and control compounds which were added in various concentrations. Following an incubation of three days, HCV replication was measured by assaying luciferase activity (using standard luciferase assay substrates and reagents and a Perkin Elmer ViewLux™ ultraHTS microplate imager). Replicon cells in the control cultures have high luciferase expression in the absence of any inhibitor. The inhibitory activity of the compound on luciferase activity was monitored on the Huh-Luc cells, enabling a dose-response curve for each test compound. EC50 values were then calculated, which value represents the amount of the compound required to decrease the level of detected luciferase activity by 50%, or more specifically, the ability of the genetically linked HCV replicon RNA to replicate.

[2] = system: DENV-2/16681/eGFP; assay: Antiviral activity against DENV-2/16681/eGFP in Huh-7 cells (eGFP read-out); type: cell-based, dengue virus serotype 2; details: Dengue virus, DENV2, Huh-7, 72 h, read-out: DENV Huh-7 (EC50, μM)
Protocol: (§1) The antiviral activity of the compounds against DENV-2/16681/eGFP was determined in a phenotypic antiviral assay with eGFP read-out, a measure for the amount of virus (TV-WI-03476 and TV-WI-05601). In parallel, cytotoxicity of the compounds was measured using ATPLite™ (PerkinElmer, Waltham, Mass.). The assay was performed in two different cell-lines (Vero and Huh-7) to exclude cell-specific activity of the compound.
(§2) DENV-2/16681/eGFP was produced by the transfection of the in vitro transcribed RNA of plasmid pFK-DVs-G2A (purchased from Prof. R. Bartenschlager, University of Heidelberg, Germany; FIG. 1) into Huh-7 cells (human hepatocarcinoma cells; kindly provided by Prof. R. Bartenschlager) (TV-WI-04247).
(§3) In brief, 2,500 Vero cells (African green monkey kidney cells; European Collection of Cell Cultures [ECACC], Porton Down, UK; catalogue number 84113001) or Huh-7 cells were seeded in 384-well plates containing 9-fold serially diluted test compound. After incubating 24 h at 37° C., Vero and Huh-7 cells were infected with DENV-2/16681/eGFP at a multiplicity of infection (MOI) of 1 and 5, respectively. After 3 days of incubation at 37° C., the viral replication was quantified by measuring eGFP expression in the cells with a laser microscope. The 50% effective concentration (EC50) was defined as the concentration inhibiting 50% of the eGFP expression of the compound-treated DENV-infected cells vs. the untreated DENV-infected cells (virus control), using the cell controls as baseline of eGFP signal (i.e., 0% signal). In the same way, the 90% effective concentration (EC90) was calculated.

[3] = Cytotoxicity in Huh-7 cells (ATPlite cell viability); type: cell-based; details: human, Table 1A, read-out: Tox Huh-7 (CC50)
Protocol: as §1
(§4) In parallel, cytotoxic effects of the compounds (50% cytotoxic concentration [CC50] and 90% cytotoxic concentration [CC90]) were evaluated using an ATPlite cell viability luminescence assay (PerkinElmer). To this end, ATPlite was added to the wells according to the supplier's instructions once the eGFP read-out was performed, and the luminescence was measured; a measure directly relating to the number of viable cells. The CC50 was determined as the 50% inhibitory concentration for the luminescent signal in compound-treated DENV-infected cells compared to untreated DENV-infected cells (virus control), using a medium control as baseline of emitted light (i.e., 0% signal).

[4] = system: DENV-2/16681/eGFP; assay: Antiviral activity against DENV-2/16681/eGFP in Vero cells (eGFP read-out); type: cell-based, dengue virus serotype 2; details: Dengue virus, DENV2, Vero, 72 h, read-out: DENV Vero (EC50, μM)
Protocol: as §1, §2, §3

[5] = Cytotoxicity in Vero cells (ATPlite cell viability); type: cell-based; details: African green monkey, Table 1A, read-out: Tox Vero (CC50)
Protocol: as §1, §4

[6] = system: CHIKV strain S27; assay: CHIKV CPE inhibition assay in Huh7 cells; type: cell-based; details: Chikungunya virus, Huh-7, 48 h
Protocol: The antiviral activities of the nucleoside analogs against chikungunya virus (CHIKV) were tested using a cell-based high-throughput CPE (cytopathic effect) inhibition assay. In this assay, CHIKV strain S27 and Huh7 cells (a human hepatoma cell line) were employed. The test compounds were prepared in a 9-point fourfold serial dilutions and plated in a 384-well plate. Then, a density of 8000 cells/well and an MOI (Multiplicity of Infection) of 0.25 CHIKV were added to each well. The plates were incubated at 37° C./5% CO2 for 2 days. The antiviral activity of a test compound was measured by addition of an ATPLite™ 1-step kit (PerkinElmer), which measures the ATP levels in live cells protected from viral CPE by a test compound. The cytotoxicity of test compounds was measured in parallel in the absence of virus infection. The readout is luminescence.

[7] = target: HCV polymerase (Hepatitis C virus genotype 1b, UniProt Q9WMX2); assay: Biochemical HCV polymerase inhibition
Chain of HCV polymerase (Q9WMX2 2420-3010): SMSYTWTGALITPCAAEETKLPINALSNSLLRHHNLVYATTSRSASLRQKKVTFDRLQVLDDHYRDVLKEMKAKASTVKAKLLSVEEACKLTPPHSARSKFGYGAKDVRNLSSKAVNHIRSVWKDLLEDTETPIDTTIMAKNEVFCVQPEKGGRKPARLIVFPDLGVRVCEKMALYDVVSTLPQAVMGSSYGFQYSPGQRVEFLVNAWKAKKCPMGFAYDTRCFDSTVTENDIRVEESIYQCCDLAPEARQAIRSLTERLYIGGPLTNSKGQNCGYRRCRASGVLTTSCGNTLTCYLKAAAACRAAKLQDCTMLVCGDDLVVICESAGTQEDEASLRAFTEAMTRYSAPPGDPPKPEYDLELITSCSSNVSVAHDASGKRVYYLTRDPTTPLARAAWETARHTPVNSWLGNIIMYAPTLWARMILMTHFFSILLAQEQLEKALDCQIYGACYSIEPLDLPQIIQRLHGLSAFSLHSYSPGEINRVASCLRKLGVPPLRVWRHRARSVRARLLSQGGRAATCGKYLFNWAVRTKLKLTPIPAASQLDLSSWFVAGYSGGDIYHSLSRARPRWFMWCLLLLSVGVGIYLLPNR

[8] = Table 1A, Huh-Luc replicon cells, 3 days, read-out: HCV Huh-7 (EC50)
[9] = read-out: CHIKV Huh-7 (EC50, μM)
[10] = Table 1A, Huh7 cells, MOI 0.25, 2 days, read-out: CHIKV Huh-7 (EC50)

Row | Structure (SMILES) | EC50 [1, 8] [µM] | EC50 [2] [µM] | CC50 [3] [µM] | EC50 [4] [µM] | CC50 [5] [µM] | EC50 [6, 9] [µM] | EC50 [6, 10] [µM] | EC50 ([1]; read-out: HCV Huh-7 (EC50, μM)) [µM] | IC50 [7] [µM]
1 | Nc1ccn([C@@H]2O[C@](F)(CO)[C@@H](O)[C@]23CCS3)c(=O)n1 [Compound 27, 4-amino-1-((4R,5R,7S,8R)-7-fluoro-8-hydroxy-7-(hydroxymethyl)-6-oxa-1-thiaspiro[3.4]octan-5-yl)pyrimidin-2(1H)-one] | > 100 | 77 | > 100 | 50 | > 100 | > 100 | – | – | –
2 | CC(C)OC(=O)[C@H](C)NP(=O)(OC[C@@]1(F)O[C@@H](n2ccc(N)nc2=O)[C@@]2(CCS2)[C@@H]1O)Oc1ccccc1 (stereo partly drawn) [Compound 31, (2S)-isopropyl 2-(((((4R,5R,7S,8R)-5-(4-amino-2-oxopyrimidin-1(2H)-yl)-7-fluoro-8-hydroxy-6-oxa-1-thiaspiro[3.4]octan-7-yl)methoxy)(phenoxy)phosphoryl)amino)propanoate] | 11 | 36 | > 100 | > 100 | > 100 | – | > 100 | – | –
3 | O=c1ccn([C@@H]2O[C@](F)(COP(=O)(Oc3ccccc3Cl)OC3CCCC3)[C@@H](O)[C@]23CCS3)c(=O)[nH]1 (stereo partly drawn) [Compound 34, 2-chlorophenyl cyclopentyl (((4R,5R,7S,8R)-5-(2,4-dioxo-3,4-dihydropyrimidin-1(2H)-yl)-7-fluoro-8-hydroxy-6-oxa-1-thiaspiro[3.4]octan-7-yl)methyl) phosphate] | – | 53 | > 100 | 35 | > 100 | > 100 | – | > 100 | –
4 | O=c1ccn([C@@H]2O[C@]3(F)COP(=O)(OC4CCCC4)O[C@H]3[C@]23CCS3)c(=O)[nH]1 (stereo partly drawn) [Compound 35, 1-((2′R,4aS,6R,7aR)-2-(cyclopentyloxy)-4a-fluoro-2-oxidotetrahydrospiro[furo[3,2-d][1,3,2]dioxaphosphinine-7,2′-thietan]-6-yl)pyrimidine-2,4(1H,3H)-dione] | 25 | > 100 | > 100 | > 100 | > 100 | 72 | – | – | –
5 | CC(C)OP(=O)(OC[C@@]1(F)O[C@@H](n2ccc(=O)[nH]c2=O)[C@@]2(CCS2)[C@@H]1O)Oc1ccc(Cl)cc1 (stereo partly drawn) [Compound 37, 4-chlorophenyl (((4R,5R,7S,8R)-5-(2,4-dioxo-3,4-dihydropyrimidin-1(2H)-yl)-7-fluoro-8-hydroxy-6-oxa-1-thiaspiro[3.4]octan-7-yl)methyl) isopropyl phosphate] | – | > 100 | > 100 | > 100 | > 100 | > 100 | – | > 100 | –
6 | O=c1ccn([C@@H]2O[C@](F)(COP(=O)(NC3CCC3)Oc3ccc(Cl)cc3)[C@@H](O)[C@]23CCS3)c(=O)[nH]1 (stereo partly drawn) [Compound 39, 4-chlorophenyl (((4R,5R,7S,8R)-5-(2,4-dioxo-3,4-dihydropyrimidin-1(2H)-yl)-7-fluoro-8-hydroxy-6-oxa-1-thiaspiro[3.4]octan-7-yl)methyl) cyclobutylphosphoramidate] | > 100 | 49 | > 100 | 45 | > 100 | – | > 100 | – | –
7 | O=c1ccn([C@@H]2O[C@]3(F)CO[P@](=O)(NC4CCC4)O[C@H]3[C@]23CCS3)c(=O)[nH]1 [Compound 40a, 1-((2R,2′R,4aS,6R,7aR)-2-(cyclobutylamino)-4a-fluoro-2-oxidotetrahydrospiro[furo[3,2-d][1,3,2]dioxaphosphinine-7,2′-thietan]-6-yl)pyrimidine-2,4(1H,3H)-dione] | > 100 | > 100 | > 100 | > 100 | > 100 | – | > 100 | – | –
8 | O=c1ccn([C@@H]2O[C@]3(F)CO[P@@](=O)(NC4CCC4)O[C@H]3[C@]23CCS3)c(=O)[nH]1 [Compound 40b, 1-((2S,2′R,4aS,6R,7aR)-2-(cyclobutylamino)-4a-fluoro-2-oxidotetrahydrospiro[furo[3,2-d][1,3,2]dioxaphosphinine-7,2′-thietan]-6-yl)pyrimidine-2,4(1H,3H)-dione] | > 100 | > 100 | > 100 | > 100 | > 100 | – | > 100 | – | –
9 | [N-]=[N+]=N[C@]1(CO)O[C@@H](n2ccc(=O)[nH]c2=O)[C@@]2(CCS2)[C@@H]1O [Compound 44, 1-[(4R,5R,6R,8R)-6-azido-5-hydroxy-6-(hydroxymethyl)-7-oxa-1-thiaspiro[3.4]octan-8-yl]pyrimidine-2,4-dione] | > 100 | > 100 | > 100 | > 100 | > 100 | > 100 | – | – | –
10 | [N-]=[N+]=N[C@]1(COP(=O)(O)OP(=O)(O)OP(=O)(O)O)O[C@@H](n2ccc(=O)[nH]c2=O)[C@@]2(CCS2)[C@@H]1O [Compound 62] | – | – | – | – | – | – | – | – | 0.56
11 | Nc1ncnc2c1ncn2[C@@H]1O[C@H](CO)[C@@H](O)[C@]12CCS2 [Compound 67, (4R,5R,7R,8R)-5-(6-amino-9H-purin-9-yl)-7-(hydroxymethyl)-6-oxa-1-thiaspiro[3.4]octan-8-ol] | > 50 | > 50 | > 50 | > 50 | > 50 | > 50 | – | – | –
